Measurements as given in article PMC3229523, “Identification of Lactoferricin B Intracellular Targets Using an Escherichia coli Proteome Chip” (PLoS ONE, 2011).
“Also recorded” adds a separate entry of the source. Ends that are not written are not given here. * marks the point of attachment. Biotin = O=C1N[C@H]2[C@H](CS[C@H]2CCCCC(=O)*)N1

Columns and labels:
[1] = test system: nrdF knockout mutant; assay: Knockout assay, nrdF knockout mutant; type: cell-based, E. coli K-12; settings: 32 µM LfcinB, LB medium, 37°C
Method: (§1) The E. coli K-12 BW25113 (isogenic parent) strain and the 16 knockout strains were obtained from the E. coli Genetic Resources at the Coli Genetic Stock Center (CGSC) at Yale University. The strains were inoculated into LB medium, and incubated at 37°C with shaking. After 16 h of incubation, the cultures were diluted to approximately 10^7 CFU/ml with LB medium. Thirty-two µM of LfcinB were then added to the cultures in a 96-well plate. PBS was used as a negative control. Cultures with LfcinB or PBS were then incubated at 37°C with shaking in a microplate reader and the growth was observed by measuring the OD595 value every 20 min for 7 h 20 min.

[2] = test system: HyaF; assay: Fluorescence polarization assay, HyaF; type: binding, E. coli
Description: (§2) FP assays, investigations of the binding between two molecules in a homogeneous aqueous environment, were used to validate the identified 153 proteins. […] If a fluorophore only binds to a small molecule, such as peptide, the rotation of the complex is fast and the light emits in a different plane of polarization. Therefore, the degree of polarization is low. However, once a fluorophore binds to a large molecule, the bound complex is stimulated with polarized light. The light emits in the same polarized plane, and the complex is maintained in the same plane of polarization, causing an increase in the degree of polarization [22]–[24]. The amount of molecules binding to a fluorophore influences the degree of polarization. In this study, LfcinB was labeled with DyLight™ 549 as a reference value. Once the protein bound to LfcinB, like a fluorophore binds to a large molecule, a high degree of polarization is expected.
(§3) Before the assays, LfcinB was labeled with DyLight™ 549 and tested proteins were quantified with a Pierce® bicinchoninic acid (BCA™) protein assay (Thermo). To label the LfcinB, DyLight™ 549-NHS ester and LfcinB (68∶1, mole/mole) were mixed in PBS at room temperature for 1 h, a D-Salt™ polyacrylamide desalting column (Thermo) was used to remove excess dye and the labeling efficiency of the eluted solution was calculated. […]

[3] = test system: NrdF; assay: Fluorescence polarization assay, NrdF; type: binding, E. coli
Description: as §2, §3

[4] = test system: isogenic parent strain and the knockout strains; assay: Knockout assay, isogenic parent and knockout strains together; type: cell-based, E. coli K-12; settings: 32 µM LfcinB, LB medium, 37°C
Method: as §1

[5] = test system: CyaA
Description: as §2, §3

[6] = test system: bacteria; settings: cited from earlier work
Description: Natural antimicrobial peptides are pervasive in plants, insects and animals.

[7] = test system: YhaN; assay: Fluorescence polarization assay, YhaN; type: binding, E. coli; settings: 100 nM DyLight 549-labeled LfcinB; protein 0.025-0.4 µM; data not shown
Description: as §2, §3

[8] = test system: pyruvate in E. coli; assay: Pyruvate assay: pyruvate level in E. coli (OD570); type: cell-based, E. coli MG1655; settings: 32 µM LfcinB
Description: To confirm one of the mechanisms of LfcinB action in pyruvate metabolism, a minimal medium was chosen; because general LB medium contains many carbon sources, including sugars, alcohols and organic acids, this minimal medium allowed glucose to be the sole carbon source in the pyruvate assays. Minimal medium consisted of 6 g/l NaH2PO4, 3 g/l K2HPO4, 0.5 g/l NaCl, 0.12 g/l MgSO4, 1 g/l NH4Cl, 0.01 g/l CaCl2 and 5 g/l glucose. A 0.22 µm filter (Millex®GS, Millipore) was used to filter the minimal medium. E. coli MG1655 was first inoculated into the minimal medium and incubated at 37°C for 16 h with shaking as a preculture. The preculture was diluted 100-fold with the minimal medium in 96-well plate, and 32 µM of LfcinB were added. The mixture was incubated with shaking in a microplate reader at 37°C, and the absorbance was measured after 9 h. Finally, the mixture was harvested by centrifugation at 3452 g for 5 min at 4°C, and each supernatant was removed. The pellets were then stored at −80°C.
To extract the pyruvate in E. coli, hot water extraction was used, a procedure adapted from Canelas et al.. Boiling water was poured into the pellet and it was immediately vortexed. The mixture was then placed in a water bath at 95–100°C for 15 min and cooled on ice. […] Finally, the OD570 of the mixtures was measured by a microplate reader to detect the color intensity.

[9] = test system: GldA; assay: Fluorescence polarization assay, GldA; type: binding, E. coli; settings: 100 nM DyLight 549-labeled LfcinB; protein 0.025-0.4 µM; data not shown
Description: as §2, §3

[10] = test system: Adi; assay: Fluorescence polarization assay, Adi; type: binding, E. coli; settings: 100 nM DyLight 549-labeled LfcinB; protein 0.025-0.4 µM; data not shown
Description: as §2, §3

[11] = test system: MetL; assay: Fluorescence polarization assay, MetL; type: binding, E. coli
Description: as §2, §3

[12] = test system: RecC; assay: Fluorescence polarization assay, RecC; type: binding, E. coli; settings: 100 nM DyLight 549-labeled LfcinB; protein 0.025-0.4 µM; data not shown
Description: as §2, §3

In the case of “Lactoferricin B (Biotin-FKCRRWQWRMKKLGAPSITCVRRAF; ends and bridges not checked) [LfcinB]”, the “growth curve with vs without LfcinB” value [1] is reported as “significant inhibited”, the “degree of polarization vs BSA” value ([2]; 100 nM DyLight 549-labeled LfcinB, protein 0.025-0.4 µM, PBS, 0.005% BSA, 0.01% Triton X-100, room temperature, 1 h, ex 540 nm, em 590 nm, Figure 5A) is reported as “higher polarization than the negative control” and the “concentration dependence of polarization” value ([2]; HyaF, two-fold dilution 0.4 µM to 0.025 µM, 100 nM labeled LfcinB) is reported as “increased with increasing concentrations of these 4 proteins”. For the same substance, the “degree of polarization vs BSA” value ([3]; 100 nM DyLight 549-labeled LfcinB, protein 0.025-0.4 µM, PBS, 0.005% BSA, 0.01% Triton X-100, room temperature, 1 h, Figure 5B) was “higher polarization than the negative control”, the “concentration dependence of polarization” value ([3]; NrdF, two-fold dilution 0.4 µM to 0.025 µM, 100 nM labeled LfcinB) was “increased with increasing concentrations of these 4 proteins” and the “growth curves, initial part (0–1.5 h), with vs without LfcinB” value ([4]; 0–1.5 h) was “higher growth curves than the strains grown without LfcinB”. The “slopes of growth curves, middle part (2–4 h), with vs without LfcinB” value ([4]; 2–4 h) was “lower than the slopes of the strains without LfcinB”, the “degree of polarization vs BSA” value ([5]; 100 nM DyLight 549-labeled LfcinB, protein 0.025-0.4 µM, PBS, 0.005% BSA, 0.01% Triton X-100, room temperature, 1 h, Figure 5D) was “higher polarization than the negative control” and the “concentration dependence of polarization” value ([5]; CyaA, two-fold dilution 0.4 µM to 0.025 µM, 100 nM labeled LfcinB) was “increased with increasing concentrations of these 4 proteins”. For the same substance, the “bacterial growth inhibition and membrane effect” value [6] was “inhibits bacterial growth by impeding intracellular activities without destroying membrane integrity or penetrating the cytoplasmic membrane”, the “mechanism of antimicrobial activity” value [6] was “pore-forming mechanism” and the “binding to YhaN” value [7] was “confirmed to bind to LfcinB”. The “pyruvate (OD570) level after 9 h with vs without LfcinB” value ([8]; minimal medium) was “accumulation of pyruvate; also recorded: higher than the level in E. coli without LfcinB”, the “Value of pyruvate (OD570) after 9 h incubation” value ([8]; minimal medium with glucose, 37°C, hot water extraction, pyruvate assay kit, E. coli without LfcinB 1.976±0.084) was 2.526±0.338 and the “binding to GldA” value [9] was “confirmed to bind to LfcinB”. For the same substance, the “binding to Adi” value [10] was “confirmed to bind to LfcinB”, the “degree of polarization vs BSA” value ([11]; 100 nM DyLight 549-labeled LfcinB, protein 0.025-0.4 µM, PBS, 0.005% BSA, 0.01% Triton X-100, room temperature, 1 h, Figure 5C) was “higher polarization than the negative control” and the “concentration dependence of polarization” value ([11]; MetL, two-fold dilution 0.4 µM to 0.025 µM, 100 nM labeled LfcinB) was “increased with increasing concentrations of these 4 proteins”. For the same substance, the “binding to RecC” value [12] was “confirmed to bind to LfcinB”.
